Values of other authors, collected in US20190000834A1, “INJECTABLE COMPOSITION AND A METHOD OF TREATMENT OF THE PHYSICAL ADDICTION” (VERITA RESEARCH PTE LTD, priority 2015, published 2019).

Experiments:
[1] = system: amphetamine dependence; settings: Naltrexone 50 mg along with CBT, 12 weeks
[2] = system: amphetamine dependent patients; settings: naltrexone 50 mg
[3] = system: amphetamine dependence; settings: outpatients
[4] = system: methamphetamine self-administering animals

In the case of O=C1CC[C@@]2(O)[C@H]3Cc4ccc(O)c5c4[C@@]2(CCN3CC2CC2)[C@H]1O5 [Naltrexone, (4R,4aS,7aR,12bS)-3-(cyclopropylmethyl)-4a,9-dihydroxy-2,4,5,6,7a,13-hexahydro-1H-4,12-methanobenzofuro [3,2-e] isoquinoline-7-one], the tolerability [1] is listed as “well tolerated”, the craving [2] is listed as “significantly blocked” and the “subjective effects produced by dexamphetamine” value [2] is listed as “significantly attenuated”. For the same compound, the amphetamine use [3] was “effective in reducing amphetamine use” and the “cue- and drug-induced methamphetamine seeking” value [4] was “attenuated cue—but not drug-induced methamphetamine”.
